“Also recorded” adds a separate entry of the source. Like-named read-outs stand apart in the source and are kept apart here.
How the values were obtained:
CquiOR2 + CquiOR7 = CquiOR2 + CquiOR7 (Culex quinquefasciatus, UniProt D5LMR6); assay: Two-electrode voltage clamp of Xenopus oocytes expressing CquiOR2 + CquiOR7; format: cell-based; details: for nH (Hill coefficient): Hill fit of concentration-response data, 5–16 oocytes; for Emax: read-out: Relative Efficacy; for current response in panel screen: each compound applied for 20 s at 10 µM; for relative efficacies (maximal responses) compared with indole: in words
Protocol: Oocytes were surgically removed from mature Xenopus laevis frogs (Nasco). The care and use of Xenopus laevis frogs in this study were approved by the University of Miami Animal Research Committee and meet the guidelines of the National Institutes of Health. Follicle cells were removed by treatment with Collagenase B (Boehringer Mannhem) for 2 h at room temperature. CquiOR2 and CquiOR7 were transferred into pGEMHE [27]. Capped cRNA encoding each OR subunit was generated using mMessage mMachine kits (Ambion). 25 ng of cRNA encoding each OR subunit was injected into Stage V-VI Xenopus oocytes. Oocytes were incubated at 18°C in Barth's saline (in mM: 88 NaCl, 1 KCl, 2.4 NaHCO3, 0.3 CaNO3, 0.41 CaCl2, 0.82 MgSO4, 15 HEPES, pH 7.6, and 100 µg/ml amikacin) for 2–5 days prior to electrophysiological recording.
Odorant-induced currents were recorded under two-electrode voltage clamp from oocytes expressing ORs, using an automated parallel electrophysiology system (OpusXpress 6000A; Molecular Devices). Oocytes were perfused with ND96 (in mM: 96 NaCl, 2 KCl, 1 CaCl2, 1 MgCl2, 5 HEPES, pH 7.5). […] Micropipettes were filled with 3 M KCl and had resistances of 0.2–2.0 MΩ. The holding potential was −70 mV. Current responses were filtered (4-pole, Bessel, low pass) at 20 Hz (-3 db), sampled at 100 Hz and were captured and stored using OpusXpress 1.1 software (Molecular Devices). Initial analysis of electrophysiological data was done using Clampfit 9.1 software (Molecular Devices). Curve fitting of concentration-response data was done using Prism 4 (Graphpad). Concentration-response data were fit to the equation: I = Imax/(1+(EC50/X)^n) where I represents the current response at a given concentration of odorant, X; Imax is the maximal response; EC50 is the concentration of odorant yielding a half maximal response; n is the apparent Hill coefficient.

[1] = tested on: ORN-B in the blunt-tipped trichoid sensilla A2; design: method as in PMID 19858490; details: cited from earlier work; for excitatory response of ORN-B: compounds tested individually
AgamOR2 = tested on: AgamOR2; design: method as in PMID 20130575, PMID 20160092, PMID 14724626, PMID 18427108; details: cited from earlier work
AgamOR10 = tested on: AgamOR10; design: method as in PMID 20130575, PMID 20160092, PMID 18427108; details: cited from earlier work
gravid Culex mosquitoes = tested on: gravid Culex mosquitoes; design: method as in PMID 18725946, PMID 10083752, PMID 1583482, PMID 15274442; details: indoor bioassays and field tests; cited from earlier work
[2] = 20 s applications, Hill fit, mean ± SEM, 5–16 separate oocytes, read-out: EC50
[3] = maximum value from fit, as percentage of the maximum value for indole, mean ± SEM

Chain of CquiOR2 + CquiOR7 (Q309I4 entry or part of it): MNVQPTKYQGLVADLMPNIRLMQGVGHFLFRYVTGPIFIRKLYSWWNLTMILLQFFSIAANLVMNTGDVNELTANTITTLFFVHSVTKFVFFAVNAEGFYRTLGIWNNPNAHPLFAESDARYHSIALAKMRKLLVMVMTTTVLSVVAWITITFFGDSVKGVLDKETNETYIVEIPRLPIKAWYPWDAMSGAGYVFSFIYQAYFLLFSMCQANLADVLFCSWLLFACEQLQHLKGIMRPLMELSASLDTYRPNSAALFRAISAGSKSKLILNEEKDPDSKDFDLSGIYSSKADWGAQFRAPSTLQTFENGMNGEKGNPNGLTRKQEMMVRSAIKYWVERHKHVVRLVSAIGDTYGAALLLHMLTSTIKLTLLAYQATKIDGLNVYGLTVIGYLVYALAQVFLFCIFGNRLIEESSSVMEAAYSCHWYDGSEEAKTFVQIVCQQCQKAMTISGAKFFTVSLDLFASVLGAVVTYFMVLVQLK
Chain of CquiOR2 + CquiOR7 (D5LMR6 entry or part of it): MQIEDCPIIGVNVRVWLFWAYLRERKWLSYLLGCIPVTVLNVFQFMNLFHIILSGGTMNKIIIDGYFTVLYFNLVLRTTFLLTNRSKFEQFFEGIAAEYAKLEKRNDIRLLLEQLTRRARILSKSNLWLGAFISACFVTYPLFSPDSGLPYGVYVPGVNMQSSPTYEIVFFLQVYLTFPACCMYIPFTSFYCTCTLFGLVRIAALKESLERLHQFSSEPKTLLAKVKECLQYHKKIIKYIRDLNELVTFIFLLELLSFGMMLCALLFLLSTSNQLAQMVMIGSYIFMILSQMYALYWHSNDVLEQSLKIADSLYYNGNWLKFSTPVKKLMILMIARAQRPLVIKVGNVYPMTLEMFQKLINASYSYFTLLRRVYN

| Compound | nH (Hill coefficient) (CquiOR2 + CquiOR7; mean ± SEM) | EC50 (CquiOR2 + CquiOR7; [2]) | Emax (CquiOR2 + CquiOR7; [3]) | relative efficacies (maximal responses) compared with indole (CquiOR2 + CquiOR7) | other results |
| --- | --- | --- | --- | --- | --- |
| Cn1ccc2ccccc21 [1-Methylindole] | 1.3±0.5 | – | – | – | EC50 (CquiOR2 + CquiOR7): 20 ± 6 µM; Emax (CquiOR2 + CquiOR7): 84 ± 9% |
| Cc1cc2ccccc2[nH]1 [2-Methylindole] | 0.9±0.4 | 7.5 ± 4.1 µM | 106 ± 16% | – | – |
| Cc1ccccc1O [2-Methylphenol] | 1.0±0.2 | – | – | lower relative efficacies than indole | EC50 (CquiOR2 + CquiOR7): 7.3 ± 1.5 µM; current response in panel screen (CquiOR2 + CquiOR7): responded well; also recorded: best responses for phenolic compounds; Emax (CquiOR2 + CquiOR7): 70 ± 9%; excitatory response of ORN-B [1]: eliciting the strongest response; response of AgamOR2 (AgamOR2): strongly respond |
| Cc1cccc2cc[nH]c12 [7-Methylindole] | 1.1±0.2 | 18 ± 3 µM | 67 ± 4% | lower relative efficacies than indole | – |
| Cc1cccc2[nH]ccc12 [4-Methylindole] | 1.0±0.2 | 3.6 ± 0.8 µM | 60 ± 4% | lower relative efficacies than indole | – |
| Cc1ccc(O)cc1 [4-methylphenol] | – | – | – | – | response threshold compared with 2-methylphenol [1]: three orders of magnitude higher; response of AgamOR10 (AgamOR10): strongly respond |
| Cc1ccc2[nH]ccc2c1 [5-Methylindole] | 1.1±0.2 | 8.6 ± 2 µM | 59 ± 4% | lower relative efficacies than indole | – |
| Cc1ccc2cc[nH]c2c1 [6-Methylindole] | 0.9±0.2 | 3 ± 0.6 µM | 69 ± 4% | lower relative efficacies than indole | – |
| Cc1c[nH]c2ccccc12 [3-Methylindole] | 0.9±0.2 | 20 ± 6 µM | 92 ± 8% | – | response of AgamOR2 (AgamOR2): strongly respond; response of AgamOR10 (AgamOR10): strongly respond; attraction of gravid Culex mosquitoes (gravid Culex mosquitoes): attractants |
| c1ccc2[nH]ccc2c1 [Indole] | 0.8±0.2 | – | – | – | EC50 (CquiOR2 + CquiOR7): 0.28 ± 0.12 µM; selectivity for indole over the various methylindoles (CquiOR2 + CquiOR7; Xenopus oocyte system): 10- to 70 fold; current response in panel screen (CquiOR2 + CquiOR7): largest current responses; Emax (CquiOR2 + CquiOR7): 100%; excitatory response of ORN-B [1]: strongest dose-dependent responses; selectivity for indole over methylindoles ([1]; single sensillum recordings from A2): three orders of magnitude selectivity; response of AgamOR2 (AgamOR2): strongly respond; response of AgamOR10 (AgamOR10): strongly respond; attraction of gravid Culex mosquitoes (gravid Culex mosquitoes): attractants |
| Cc1cccc(O)c1 [3-methylphenol] | – | – | – | – | response threshold compared with 2-methylphenol [1]: three orders of magnitude higher |
